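Exposure lasted 48 hours, with cells grown in 96-well plates and compounds tested at five concentrations. GI50 is the concentration that inhibits growth by half.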 The source made the active and inactive calls. Rule as the data show it: active = GI50 up to about 1.1 µM and inactive = higher. Where a SMILES comes first, the peptide text is derived from it. [ ]: non-standard residue; d: D form. The star is where a group is joined. ξ: configuration not given here. ξD = NC(CC(=O)O)C(=O)O; Boc = CC(C)(C)OC(=O)*; Aib = CC(C)(N)C(=O)O; OtBu = CC(C)(C)O*
How the values were obtained:
Assay in all cases: inhibition of tumour cell growth, NCI panel, 48 h
786-0 = tested on: 786-0
A549 = tested on: A549
ACHN = tested on: ACHN
BT-549 = tested on: BT-549
CAKI-1 = tested on: CAKI-1
CCRF-CEM = tested on: CCRF-CEM
COLO 205 = tested on: COLO 205
DU-145 = tested on: DU-145
EKVX = tested on: EKVX
HCC 2998 = tested on: HCC 2998
HCT-116 = tested on: HCT-116
HCT-15 = tested on: HCT-15
HL-60 = tested on: HL-60
HOP-92 = tested on: HOP-92
HT-29 = tested on: HT-29
Hs-578T = tested on: Hs-578T
IGROV-1 = tested on: IGROV-1
K562 = tested on: K562
KM12 = tested on: KM12
LOX IMVI = tested on: LOX IMVI
M14 = tested on: M14
MCF7 = tested on: MCF7
MDA-MB-231 = tested on: MDA-MB-231
MDA-MB-435 = tested on: MDA-MB-435
MDA-N = tested on: MDA-N
MOLT-4 = tested on: MOLT-4
Malme-3M = tested on: Malme-3M
NCI-H226 = tested on: NCI-H226
NCI-H23 = tested on: NCI-H23
NCI-H460 = tested on: NCI-H460
NCI-H522 = tested on: NCI-H522
NCI/ADR-RES = tested on: NCI/ADR-RES
OVCAR-3 = tested on: OVCAR-3
OVCAR-4 = tested on: OVCAR-4
OVCAR-5 = tested on: OVCAR-5
OVCAR-8 = tested on: OVCAR-8
PC-3 = tested on: PC-3
RPMI-8226 = tested on: RPMI-8226
SF-268 = tested on: SF-268
SF-295 = tested on: SF-295
SF-539 = tested on: SF-539
SK-MEL-28 = tested on: SK-MEL-28
SK-MEL-2 = tested on: SK-MEL-2
SK-MEL-5 = tested on: SK-MEL-5
SK-OV-3 = tested on: SK-OV-3
SN12C = tested on: SN12C
SNB-19 = tested on: SNB-19
SNB-75 = tested on: SNB-75
SW-620 = tested on: SW-620
T47D = tested on: T47D
TK-10 = tested on: TK-10
U-251 = tested on: U-251
UACC-257 = tested on: UACC-257
UACC-62 = tested on: UACC-62
UO-31 = tested on: UO-31
A498 = tested on: A498
HOP-62 = tested on: HOP-62
RXF 393 = tested on: RXF 393

C=C(C)C1Cc2cc(C(C)=O)ccc2O1 (stereo not given)
GI50 (786-0): > 100 µM (inactive)
GI50 (A549): > 100 µM (inactive)
GI50 (ACHN): > 100 µM (inactive)
GI50 (BT-549): > 100 µM (inactive)
GI50 (CAKI-1): > 100 µM (inactive)
GI50 (CCRF-CEM): > 100 µM (inactive)
GI50 (COLO 205): > 100 µM (inactive)
GI50 (DU-145): > 100 µM (inactive)
GI50 (EKVX): > 100 µM (inactive)
GI50 (HCC 2998): > 100 µM (inactive)
GI50 (HCT-116): > 100 µM (inactive)
GI50 (HCT-15): > 100 µM
GI50 (HL-60): > 100 µM (inactive)
GI50 (HOP-92): > 100 µM (inactive)
GI50 (HT-29): > 100 µM (inactive)
GI50 (Hs-578T): > 100 µM (inactive)
GI50 (IGROV-1): > 100 µM (inactive)
GI50 (K562): > 100 µM (inactive)
GI50 (KM12): > 100 µM (inactive)
GI50 (LOX IMVI): > 100 µM (inactive)
GI50 (M14): > 100 µM (inactive)
GI50 (MCF7): > 100 µM (inactive)
GI50 (MDA-MB-231): > 100 µM (inactive)
GI50 (MDA-MB-435): > 100 µM (inactive)
GI50 (MDA-N): > 100 µM (inactive)
GI50 (MOLT-4): > 100 µM (inactive)
GI50 (Malme-3M): > 100 µM (inactive)
GI50 (NCI-H226): > 100 µM (inactive)
GI50 (NCI-H23): > 100 µM (inactive)
GI50 (NCI-H460): > 100 µM (inactive)
GI50 (NCI-H522): > 100 µM (inactive)
GI50 (NCI/ADR-RES): > 100 µM (inactive)
GI50 (OVCAR-3): > 100 µM (inactive)
GI50 (OVCAR-4): > 100 µM (inactive)
GI50 (OVCAR-5): > 100 µM (inactive)
GI50 (OVCAR-8): > 100 µM (inactive)
GI50 (PC-3): > 100 µM (inactive)
GI50 (RPMI-8226): > 100 µM (inactive)
GI50 (SF-268): > 100 µM (inactive)
GI50 (SF-295): > 100 µM (inactive)
GI50 (SF-539): > 100 µM (inactive)
GI50 (SK-MEL-28): > 100 µM (inactive)
GI50 (SK-MEL-2): > 100 µM (inactive)
GI50 (SK-MEL-5): > 100 µM (inactive)
GI50 (SK-OV-3): > 100 µM (inactive)
GI50 (SN12C): > 100 µM (inactive)
GI50 (SNB-19): > 100 µM (inactive)
GI50 (SNB-75): > 100 µM (inactive)
GI50 (SW-620): > 100 µM (inactive)
GI50 (T47D): > 100 µM (inactive)
GI50 (TK-10): > 100 µM (inactive)
GI50 (U-251): > 100 µM (inactive)
GI50 (UACC-257): > 100 µM (inactive)
GI50 (UACC-62): > 100 µM (inactive)
GI50 (UO-31): > 100 µM (inactive)

COC(=O)C(C)(C)NC(=O)C(C)(C)NC(=O)C(CC(=O)OC(C)(C)C)NC(=O)OC(C)(C)C (stereo not given) (Boc-[ξD](OtBu)-[Aib]-[Aib]-OMe)
GI50 (786-0): > 100 µM (inactive)
GI50 (A498): > 100 µM (inactive)
GI50 (A549): > 100 µM (inactive)
GI50 (ACHN): > 100 µM (inactive)
GI50 (BT-549): > 100 µM (inactive)
GI50 (CAKI-1): > 100 µM (inactive)
GI50 (CCRF-CEM): > 100 µM (inactive)
GI50 (COLO 205): > 100 µM (inactive)
GI50 (DU-145): > 100 µM (inactive)
GI50 (EKVX): > 100 µM (inactive)
GI50 (HCT-116): > 100 µM (inactive)
GI50 (HCT-15): > 100 µM
GI50 (HOP-62): > 100 µM (inactive)
GI50 (HOP-92): > 100 µM (inactive)
GI50 (HT-29): > 100 µM (inactive)
GI50 (Hs-578T): > 100 µM (inactive)
GI50 (IGROV-1): > 100 µM (inactive)
GI50 (K562): > 100 µM (inactive)
GI50 (KM12): > 100 µM (inactive)
GI50 (LOX IMVI): > 100 µM (inactive)
GI50 (M14): > 100 µM (inactive)
GI50 (MCF7): > 100 µM (inactive)
GI50 (MDA-MB-231): > 100 µM (inactive)
GI50 (MDA-MB-435): > 100 µM (inactive)
GI50 (MDA-N): > 10 µM (inactive)
GI50 (MOLT-4): > 100 µM (inactive)
GI50 (Malme-3M): > 100 µM (inactive)
GI50 (NCI-H226): > 100 µM (inactive)
GI50 (NCI-H23): > 100 µM (inactive)
GI50 (NCI-H460): > 100 µM (inactive)
GI50 (NCI-H522): > 100 µM (inactive)
GI50 (NCI/ADR-RES): > 100 µM (inactive)
GI50 (OVCAR-3): > 100 µM (inactive)
GI50 (OVCAR-4): > 100 µM (inactive)
GI50 (OVCAR-5): > 100 µM (inactive)
GI50 (OVCAR-8): > 100 µM (inactive)
GI50 (PC-3): > 100 µM (inactive)
GI50 (RPMI-8226): > 100 µM (inactive)
GI50 (RXF 393): > 100 µM (inactive)
GI50 (SF-268): 3.71 µM (inactive)
GI50 (SF-295): > 100 µM (inactive)
GI50 (SF-539): > 100 µM (inactive)
GI50 (SK-MEL-28): > 100 µM (inactive)
GI50 (SK-MEL-2): > 100 µM (inactive)
GI50 (SK-MEL-5): > 100 µM (inactive)
GI50 (SK-OV-3): > 100 µM (inactive)
GI50 (SNB-19): > 100 µM (inactive)
GI50 (SNB-75): > 100 µM (inactive)
GI50 (SW-620): > 100 µM (inactive)
GI50 (T47D): > 100 µM (inactive)
GI50 (TK-10): > 100 µM (inactive)
GI50 (U-251): > 100 µM (inactive)
GI50 (UACC-257): > 100 µM (inactive)
GI50 (UACC-62): > 100 µM (inactive)
GI50 (UO-31): > 100 µM (inactive)

— ChEMBL document CHEMBL1201862, “PubChem BioAssay data set” (2004)
